Reference: patent publication US20210205341A1, “COMPOSITIONS COMPRISING HUMAN MILK OLIGOSACCHARIDES FOR USE IN INFANTS OR YOUNG CHILDREN TO PREVENT OR TREAT A HEALTH DISORDER BY INCREASING GLP-1 SECRETION” (NESTEC S.A., priority 2016, published 2021)

Experiments:
GLP-1 secretion = assay: GLP-1 plasma concentration in IUGR rats fed HMO-supplemented regimen; assay type: in vivo, rat
From the text: A wide group of pregnant female rats were bought from Charles River laboratories. They were submitted to food restriction of 60% during the last 10 days of gestation.
Immediately after birth (d=1), the born rat pups—subjects of the experiment—were split into several groups: • IUGR rats (control) (n=20) • IUGR rats+HMO (test groups): During the experiment, they were reared by their mothers for 21 days and supplemented with HMOs (2FL or LNnT). At weaning, they were fed a diet supplemented with the same HMOs, see details below. There were 2 different groups: • IUGR rats+2FL (n=10) • IUGR rats+LNnT (n=10)
IUGR (intrauterine growth restricted) rats were chosen as control model since they have a higher appetite to compensate their growth retardation, and therefore they may not eat in a healthy way with standard diets (e.g. they may have a higher total weight and/or adipose mass increase over their lean mass increase) which may lead to the development and programming for future health conditions including later in life obesity or future related comorbidities like diabetes.
All rat pups were fed from birth (d=1) up to 57 days (d=57) based on the following protocol: • day 1-day 6: all groups of rats were nursed by dam (mothers' milk only) • day 7-day 21: all rats were nursed by dam (mothers' milk only). But in the test groups, 3 g/kg body weight of a HMO were also administered by gavage: 2FL: 3 g/kg body weight, for the group IUGR rats+2FL LNnT: 3 g/kg body weight, for the group IUGR rats+LNnT • day 22-day 57: rats were separated from their mothers and they had the following regimen: • IUGR rats (control): fed with a control diet (composition detailed in table 2), no HMO supplementation
IUGR rats+HMO (test groups): fed with the same diet but supplemented with 4.5 wt % of a HMO (maltodextrin in the total control diet was replaced by the respective tested HMO):
4.5 wt % of 2FL for the group IUGR rats+2FL
4.5 wt % of LNnT for the group IUGR rats+LNnT
GLP-1 secretion in the rats was assessed by determination of its circulating concentration in plasma.

NCI-H716 cells = assay: Calcium assay in NCI-H716 cells (fluorescent calcium sensitive dye); assay type: cell-based, human; conditions: for significance of increase in fluorescence ratio: 5 mg/mL, 10 mg/mL and 20 mg/mL, p<0.05 vs negative control, two-sided t-test; for concentration dependence of calcium response: 1-20 mg/mL; for fluorescence ratio (intracellular calcium response): all tested concentrations: 1, 5, 10 and 20 mg/mL, vs buffer negative control
From the text: NCI-H716 is a cell line derived from human L-cells, the enteroendocrine cells that secrete GLP-1, and it is often used as a model of GLP-1 secretion. Unstimulated NCI-H716 cells secrete a basal level of GLP-1 and activation of the cells leads to dose-dependent increase in GLP-1 secretion. Activation of the NCI-H716 cells and subsequent release of GLP-1 can be triggered by nutrients such as palmitic acid, oleic acid, and meat hydrolysate, Gastrin Releasing Peptide (GRP), the cholinergic molecule Carbachol, bitter compounds such as denatonium, ginsenosides and other molecules.
Activation of NCI-H716 cells by ionomycin, GRP, denatonium, or ginsenosides leads to increased intracellular calcium. Elevation of intracellular calcium is therefore a marker of cell activation and in NCI-H716 cells it could be considered as an indicator of GLP-1 release.
A calcium assay was used to determine if NCI-H716 cells respond to human milk oligosaccharides (sialylated oligosaccharides 3SL and 6SL) or components/precursors thereof (lactose and sialic acid). In this assay, cultured NCI-H716 cells were loaded with a fluorescent calcium sensitive dye then stimulated with the HMOs. The response to the stimulus was measured by change in fluorescence ratio in consequence of intracellular calcium increase. The tested HMOs were 3′-sialyllactose (3SL) and 6′-sialyllactose (6SL). They were tested individually.
GRP (Gastrin Releasing Peptide): positive control
Tested HMOs concentrations: 1 mg/mL, 5 mg/mL, 10 mg/mL and 20 mg/mL
Tested lactose and sialic acid concentrations: 5.5 mg/mL and 4.72 mg/mL respectively (correspond to the amounts contained in 10 mg/mL of 3SL, in order to make a suitable comparison with 10 mg/mL of 3SL)

[1] = d=57, 3 g/kg by gavage day 7-21, then diet with 4.5 wt % HMO day 22-57, FIG. 1A partial results
[2] = d=57, 3 g/kg by gavage day 7-21, then diet with 4.5 wt % HMO day 22-57, FIG. 1B final results

## 2′-fucosyllactose [2FL]
GLP-1 secretion; [1]
  GLP-1 plasma concentration increase in comparison with the control group: 200%
GLP-1 secretion; [2]
  GLP-1 plasma concentration increase in comparison with the control group: 164%

## CC(=O)N[C@H]1[C@H](O[C@H]2[C@@H](O)[C@@H](CO)O[C@@H](O[C@H]3[C@H](O)[C@@H](O)C(O)O[C@@H]3CO)[C@@H]2O)O[C@H](CO)[C@@H](O[C@@H]2O[C@H](CO)[C@H](O)[C@H](O)[C@H]2O)[C@@H]1O (mixture of isomers) [LNnT, lacto-N-neotetraose]
GLP-1 secretion; [1]
  GLP-1 plasma concentration increase in comparison with the control group: 43%
GLP-1 secretion; [2]
  GLP-1 plasma concentration increase in comparison with the control group: 13%

## CC(=O)N[C@H]1[C@H]([C@H](O)[C@H](O)CO)O[C@@](O[C@H]2[C@@H](O)[C@@H](CO)O[C@@H](O[C@H]3[C@H](O)[C@@H](O)C(O)O[C@@H]3CO)[C@@H]2O)(C(=O)O)C[C@@H]1O (stereo partly drawn) [3SL, (6R)-5-Acetamido-3,5-dideoxy-6-[(1R,2R)-1,2,3-trihydroxypropyl]-β-L-threo-hex-2-ulopyranonosyl-(2->3)-β-D-galactopyranosyl-(1->4)-D-glucopyranose]
NCI-H716 cells
  significance of increase in fluorescence ratio: significant
  concentration dependence of calcium response: clear concentration dependent calcium response
  fluorescence ratio (intracellular calcium response): enhanced

## CC(=O)N[C@H]1[C@H]([C@H](O)[C@H](O)CO)O[C@@](OC[C@H]2O[C@@H](O[C@H]3[C@H](O)[C@@H](O)C(O)O[C@@H]3CO)[C@H](O)[C@@H](O)[C@H]2O)(C(=O)O)C[C@@H]1O (stereo partly drawn) [6SL, (6R)-5-Acetamido-3,5-dideoxy-6-[(1R,2R)-1,2,3-trihydroxypropyl]-β-L-threo-hex-2-ulopyranonosyl-(2->6)-β-D-galactopyranosyl-(1->4)-D-glucopyranose]
NCI-H716 cells
  significance of increase in fluorescence ratio: significant
  concentration dependence of calcium response: clear concentration dependent calcium response
  fluorescence ratio (intracellular calcium response): enhanced

## OC[C@H]1O[C@@H](O[C@H]2[C@H](O)[C@@H](O)C(O)O[C@@H]2CO)[C@H](O)[C@@H](O)[C@H]1O (stereo partly drawn) [Lactose, reference compound]
NCI-H716 cells; 5.5 mg/mL (amount contained in 10 mg/mL 3SL)
  activation of NCI-H716 cells (calcium response): did not activate the cells

## CC(=O)N[C@H]1[C@H]([C@H](O)[C@H](O)CO)OC(O)(C(=O)O)C[C@@H]1O (stereo partly drawn) [sialic acid, N-acetylneuraminic acid, reference compound]
NCI-H716 cells; 4.72 mg/mL (amount contained in 10 mg/mL 3SL)
  activation of NCI-H716 cells (calcium response): did not activate the cells
